Assay results published in ChEMBL document CHEMBL3232754, “Identification of novel bivalent mimetics of annonaceous acetogenins via a scaffold-hopping strategy” (Bioorg Med Chem Lett, 2014).

Key:
[1] = tested on: HCT-116; assay: Growth inhibition of human HCT116 cells after 72 hrs by MTT assay; type: functional; details: HCT-116, 72 h
[2] = Growth inhibition of human 16HBE cells after 72 hrs by MTT assay; type: cell-based, 16HBE14o-
[3] = Growth inhibition of human HLF cells by MTT assay
[4] = Growth inhibition of human SGC7901 cells by MTT assay; details: SGC-7901
[5] = Growth inhibition of human HLF cells after 72 hrs by MTT assay; type: cell-based
[6] = Growth inhibition of human SGC7901 cells after 72 hrs by MTT assay; type: functional; details: SGC-7901, 72 h
[7] = Growth inhibition of human 16HBE cells by MTT assay
[8] = tested on: HCT-116; assay: Growth inhibition of human HCT116 cells by MTT assay

CCCCCCCCCC[C@H](O)COCCOC[C@@H](O)CCCCCCCCCCCCC1=C[C@H](C)OC1=O
GI50 [1]: 0.03 µM | GI50 at 72 h [2]: 3.34 µM | GI50 [3]: 2.62 µM | GI50 [4]: 0.25 µM | GI50 at 72 h [5]: 9.71 µM | GI50 [6]: 0.16 µM | GI50 [7]: 4.8 µM | GI50 [8]: 0.09 µM

COC1=C(OC)C(=O)C(CCCCCCCCCCN2CCN(CCCCCCCCCCC3=C(C)C(=O)C(OC)=C(OC)C3=O)CC2)=C(C)C1=O
GI50 [1]: 1.95 µM | GI50 at 72 h [2]: 2.63 µM | GI50 [3]: > 20 µM | GI50 at 72 h [5]: > 20 µM | GI50 [6]: 9.77 µM | GI50 [7]: > 20 µM | GI50 [8]: 11.7 µM

COC1=C(C)C(=O)C(CCCCCCCCCCN2CCN(CCCCCCCCCCC3=C(C)C(=O)C(OC)=C(C)C3=O)CC2)=C(C)C1=O
GI50 [1]: 0.18 µM | GI50 at 72 h [2]: > 20 µM | GI50 [3]: > 20 µM | GI50 [4]: 0.19 µM | GI50 at 72 h [5]: > 20 µM | GI50 [6]: 0.14 µM | GI50 [7]: 8.4 µM | GI50 [8]: 0.15 µM

CC1=C(C)C(=O)C(CCCCCCCCCCN2CCN(CCCCCCCCCCC3=C(C)C(=O)C(C)=C(C)C3=O)CC2)=C(C)C1=O
GI50 [1]: 0.07 µM | GI50 at 72 h [2]: 3.85 µM | GI50 [3]: 5.87 µM | GI50 at 72 h [5]: > 20 µM | GI50 [6]: > 20 µM | GI50 [7]: 1.52 µM | GI50 [8]: 0.12 µM

CC1=C(CCCCCCCCCCN2CCN(CCCCCCCCCCC3=C(C)C(=O)c4ccccc4C3=O)CC2)C(=O)c2ccccc2C1=O
GI50 [1]: 0.26 µM | GI50 at 72 h [2]: 3.52 µM | GI50 [3]: 15.7 µM | GI50 [4]: 0.39 µM | GI50 at 72 h [5]: > 20 µM | GI50 [6]: > 20 µM | GI50 [7]: 4.15 µM | GI50 [8]: 0.26 µM

COC1=C(OC)C(=O)C(CCCCCCCCCCN2CCCN(CCCCCCCCCCC3=C(C)C(=O)C(OC)=C(OC)C3=O)CC2)=C(C)C1=O
GI50 [1]: 1.98 µM | GI50 at 72 h [2]: 1.14 µM | GI50 [3]: > 20 µM | GI50 [4]: 11.7 µM | GI50 at 72 h [5]: > 20 µM | GI50 [6]: 8.69 µM | GI50 [7]: 14 µM | GI50 [8]: 8.43 µM

COC1=C(C)C(=O)C(CCCCCCCCCCN2CCCN(CCCCCCCCCCC3=C(C)C(=O)C(OC)=C(C)C3=O)CC2)=C(C)C1=O
GI50 [1]: 0.04 µM | GI50 at 72 h [2]: > 20 µM | GI50 [3]: 6.86 µM | GI50 at 72 h [5]: > 20 µM | GI50 [6]: 0.04 µM | GI50 [7]: 1.78 µM | GI50 [8]: 0.02 µM

CC1=C(C)C(=O)C(CCCCCCCCCCN2CCCN(CCCCCCCCCCC3=C(C)C(=O)C(C)=C(C)C3=O)CC2)=C(C)C1=O
GI50 [1]: 0.3 µM | GI50 at 72 h [2]: 3.32 µM | GI50 [3]: 2.55 µM | GI50 [4]: 0.14 µM | GI50 at 72 h [5]: 0.36 µM | GI50 [6]: 0.14 µM | GI50 [7]: 0.91 µM | GI50 [8]: 0.1 µM

CC1=C(CCCCCCCCCCN2CCCN(CCCCCCCCCCC3=C(C)C(=O)c4ccccc4C3=O)CC2)C(=O)c2ccccc2C1=O
GI50 [1]: 0.09 µM | GI50 at 72 h [2]: 2.7 µM | GI50 [3]: 2.68 µM | GI50 [4]: 0.15 µM | GI50 at 72 h [5]: 4.95 µM | GI50 [6]: 0.12 µM | GI50 [7]: 1.14 µM | GI50 [8]: 0.13 µM

COC1=C(C)C(=O)C(CCCCCCCCCCN(C)CCN(C)CCCCCCCCCCC2=C(C)C(=O)C(OC)=C(C)C2=O)=C(C)C1=O
GI50 [1]: 1.48 µM | GI50 at 72 h [2]: > 20 µM | GI50 [3]: > 20 µM | GI50 at 72 h [5]: > 20 µM | GI50 [6]: 9.76 µM | GI50 [7]: > 20 µM | GI50 [8]: > 20 µM

COC1=C(OC)C(=O)C(CCCCCCCCCCN2CCCN(C(=O)c3ccc(-c4ccccc4)cc3)CC2)=C(C)C1=O
GI50 [1]: 1.36 µM | GI50 at 72 h [2]: 10.3 µM | GI50 [3]: > 20 µM | GI50 [4]: > 20 µM | GI50 at 72 h [5]: > 20 µM | GI50 [6]: 5 µM | GI50 [7]: 8.01 µM | GI50 [8]: 9.73 µM

COC1=C(C)C(=O)C(CCCCCCCCCCN2CCCN(C(=O)c3ccc(-c4ccccc4)cc3)CC2)=C(C)C1=O
GI50 [1]: 0.89 µM | GI50 at 72 h [2]: 3.15 µM | GI50 [3]: > 20 µM | GI50 [4]: 19.4 µM | GI50 at 72 h [5]: > 20 µM | GI50 [6]: 1.56 µM | GI50 [7]: 9.76 µM | GI50 [8]: 9.68 µM

CC1=C(C)C(=O)C(CCCCCCCCCCN2CCCN(C(=O)c3ccc(-c4ccccc4)cc3)CC2)=C(C)C1=O
GI50 [1]: 1.78 µM | GI50 at 72 h [2]: 4 µM | GI50 [3]: > 20 µM | GI50 [4]: 19.9 µM | GI50 at 72 h [5]: > 20 µM | GI50 [6]: 1.39 µM | GI50 [7]: 7.97 µM | GI50 [8]: 7.47 µM

CC1=C(CCCCCCCCCCN2CCCN(C(=O)c3ccc(-c4ccccc4)cc3)CC2)C(=O)c2ccccc2C1=O
GI50 [1]: 0.97 µM | GI50 at 72 h [2]: 2.85 µM | GI50 [3]: > 20 µM | GI50 [4]: > 20 µM | GI50 at 72 h [5]: > 20 µM | GI50 [6]: 5.57 µM | GI50 [7]: 12.4 µM | GI50 [8]: 13.2 µM

O=C1C=C(CCCCCCCCCCN2CCCN(C(=O)c3ccc(-c4ccccc4)cc3)CC2)C(=O)c2ccccc21
GI50 [1]: > 20 µM | GI50 at 72 h [2]: > 20 µM | GI50 [3]: > 20 µM | GI50 [4]: > 20 µM | GI50 at 72 h [5]: > 20 µM | GI50 [6]: > 20 µM | GI50 [7]: > 20 µM | GI50 [8]: > 20 µM

COC1=C(C)C(=O)C(CCCCCCCCCCN2CCN(C(=O)c3ccc(-c4ccccc4)cc3)CC2)=C(C)C1=O
GI50 [1]: 2.29 µM | GI50 at 72 h [2]: 3.19 µM | GI50 [3]: > 20 µM | GI50 [4]: > 20 µM | GI50 at 72 h [5]: > 20 µM | GI50 [6]: 5.27 µM | GI50 [7]: > 20 µM | GI50 [8]: 20 µM

COc1cccc2c1C(=O)c1c(O)c3c(c(O)c1C2=O)C[C@@](O)(C(=O)CO)C[C@@H]3O[C@H]1C[C@H](N)[C@H](O)[C@H](C)O1 [DOXORUBICIN]
GI50 [3]: 0.33 µM | GI50 [4]: 0.55 µM | GI50 [7]: 0.18 µM | GI50 [8]: 0.15 µM
